Test results: US20090036420A1, “BENZAMIDE DERIVATIVES AND THEIR USE FOR TREATING CNS DISORDERS” (priority 2007, published 2009)

molecular target: T1, TAAR1 (Mus musculus, UniProt Q923Y8); experiment: Radioligand binding assay on membranes of HEK293 cells stably expressing TAAR1; conditions: Ki value (μM) in mouse, radioligand [3H]-rac-2-(1,2,3,4-tetrahydro-1-naphthyl)-2-imidazoline 60 nM, 4° C., 30 min
T1 construct: expressed in transfected cells; host or cells: HEK293 cells (ATCC #CRL-1573), stably transfected with pIRESneo2 expression plasmid; membrane preparation
Method: The Expand High Fidelity PCR System (Roche Diagnostics) was used with 1.5 mM Mg^2+ and purified PCR products were cloned into pCR2.1-TOPO cloning vector (Invitrogen) following the instructions of the manufacturer. PCR products were subcloned into the pIRESneo2 vector (BD Clontech, Palo Alto, Calif.), and expression vectors were sequence verified before introduction in cell lines.
For the generation of stably transfected cell lines HEK293 cells were transfected with the pIRESneo2 expression plasmids containing the TAAR coding sequences (described above) with Lipofectamine 2000 (Invitrogen) according to the instructions of the manufacturer, and 24 hrs post transfection the culture medium was supplemented with 1 mg/ml G418 (Sigma, Buchs, Switzerland). After a culture period of about 10 d clones were isolated, expanded and tested for responsiveness to trace amines (all compounds purchased from Sigma) with the cAMP Biotrak Enzyme immunoassay (EIA) System (Amersham) following the non-acetylation EIA procedure provided by the manufacturer.
Cells at confluence were rinsed with ice-cold phosphate buffered saline without Ca^2+ and Mg^2+ containing 10 mM EDTA and pelleted by centrifugation at 1000 rpm for 5 min at 4° C. The pellet was then washed twice with ice-cold phosphate buffered saline and cell pellet was frozen immediately by immersion in liquid nitrogen and stored until use at −80° C. Cell pellet was then suspended in 20 ml HEPES-NaOH (20 mM), pH 7.4 containing 10 mM EDTA, and homogenized with a Polytron (PT 3000, Kinematica) at 10,000 rpm for 10 s. The homogenate was centrifuged at 48,000×g for 30 min at 4° C. and the pellet resuspended in 20 ml HEPES-NaOH (20 mM), pH 7.4 containing 0.1 mM EDTA (buffer A), and homogenized with a Polytron at 10,000 rpm for 10 s. The homogenate was then centrifuged at 48,000×g for 30 min at 4° C. and the pellet resuspended in 20 ml buffer A, and homogenized with a Polytron at 10,000 rpm for 10 s. Protein concentration was determined by the method of Pierce (Rockford, Ill.). […] Non-specific binding was defined as the amount of [^3H]-rac-2-(1,2,3,4-tetrahydro-1-naphthyl)-2-imidazoline bound in the presence of the appropriate unlabelled ligand (10 μM). Competing ligands were tested in a wide range of concentrations (10 pM-30 μM). […] Each experiment was performed in duplicate. All incubations were terminated by rapid filtration through UniFilter-96 plates (Packard Instrument Company) and glass filter GF/C, pre-soaked for at least 2 h in polyethylenimine 0.3%, and using a Filtermate 96 Cell Harvester (Packard Instrument Company). The tubes and filters were then washed 3 times with 1 ml aliquots of cold buffer B. Filters were not dried and soaked in Ultima gold (45 μl/well, Packard Instrument Company) and bound radioactivity was counted by a TopCount Microplate Scintillation Counter (Packard Instrument Company).

T1 sequence (Q923Y8 whole entry): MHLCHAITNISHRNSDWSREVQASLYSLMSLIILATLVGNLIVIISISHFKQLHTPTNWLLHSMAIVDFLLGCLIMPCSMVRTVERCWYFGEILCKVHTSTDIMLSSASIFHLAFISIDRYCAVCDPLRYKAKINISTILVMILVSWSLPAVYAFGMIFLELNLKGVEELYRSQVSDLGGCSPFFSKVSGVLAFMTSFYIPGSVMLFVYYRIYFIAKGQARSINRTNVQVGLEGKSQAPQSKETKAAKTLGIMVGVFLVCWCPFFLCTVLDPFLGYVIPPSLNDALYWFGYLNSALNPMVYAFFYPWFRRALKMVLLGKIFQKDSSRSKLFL

Compound	Ki [µM]
CCCCNc1ccc(C(=O)Nc2cccc(OC)c2)cc1C(F)(F)F [Example 145, 4-Butylamino-N-(3-methoxy-phenyl)-3-trifluoromethyl-benzamide]	0.01
COc1cccc(NC(=O)c2ccc(N3CCOCC3)c(C(F)(F)F)c2)c1 [Example 150, N-(3-Methoxy-phenyl)-4-morpholin-4-yl-3-trifluoromethyl-benzamide]	0.086
CC1CCN(c2ncc(C(=O)Nc3cccc(Cl)c3)cc2Cl)CC1 [Example 155, 3′-Chloro-4-methyl-3,4,5,6-tetrahydro-2H-[1,2′]bipyridinyl-5′-carboxylicacid (3-chloro-phenyl)-amide]	0.023
CCCNc1ncc(C(=O)Nc2cccc(Cl)c2)cc1Cl [Example 157, 5-Chloro-N-(3-chloro-phenyl)-6-propylamino-nicotinamide]	0.011
CCCCNc1ncc(C(=O)Nc2cccc(Cl)c2)cc1Cl [Example 158, 6-Butylamino-5-chloro-N-(3-chloro-phenyl)-nicotinamide]	0.008

same assay, conditions: radioligand [3H]-rac-2-(1,2,3,4-tetrahydro-1-naphthyl)-2-imidazoline 60 nM, 4° C., 30 min, read-out: Ki value (μM) in mouse

Compound	Ki [µM]
COc1cccc(NC(=O)c2ccc(F)c(S(=O)(=O)N3CC(C)CC(C)C3)c2)c1 (racemic) [Example 167, (rac,meso)-3-(3,5-Dimethyl-piperidine-1-sulfonyl)-4-fluoro-N-(3-methoxy-phenyl)-benzamide]	0.004
COc1cccc(NC(=O)c2ccc(N3CC(C)CC(C)C3)c(C(F)(F)F)c2)c1 (racemic) [Example 194, (rac,meso)-4-(3,5-Dimethyl-piperidin-1-yl)-N-(3-methoxy-phenyl)-3-trifluoromethyl-benzamide]	0.007
O=C(Nc1ccccc1)c1ccc(Cl)c(C(F)(F)F)c1 [Example 6, 4-Chloro-N-phenyl-3-trifluoromethyl-benzamide]	0.098
COc1cccc(NC(=O)c2ccc(Cl)c([N+](=O)[O-])c2)c1 [Example 12, 4-Chloro-N-(3-methoxy-phenyl)-3-nitro-benzamide]	0.037
COc1cccc(NC(=O)c2ccc(N3CCC(C)CC3)c([N+](=O)[O-])c2)c1 [Example 27, N-(3-Methoxy-phenyl)-4-(4-methyl-piperidin-1-yl)-3-nitro-benzamide]	0.002
COc1cccc(NC(=O)c2ccc(Br)c([N+](=O)[O-])c2)c1 [Example 42, 4-Bromo-N-(3-methoxy-phenyl)-3-nitro-benzamide]	0.021
O=C(Nc1cccc(Cl)c1)c1cnc(Cl)c(Cl)c1 [Example 47, 5,6-Dichloro-N-(3-chloro-phenyl)-nicotinamide]	0.079
COc1cccc(NC(=O)c2ccc(F)c(Cl)c2)c1 [Example 70, 3-Chloro-4-fluoro-N-(3-methoxy-phenyl)-benzamide]	0.1
COc1cccc(NC(=O)c2ccc(F)c(C(F)(F)F)c2)c1 [Example 73, 4-Fluoro-N-(3-methoxy-phenyl)-3-trifluoromethyl-benzamide]	0.03
COc1cccc(NC(=O)c2cnc(Cl)c(Cl)c2)c1 [Example 78, 5,6-Dichloro-N-(3-methoxy-phenyl)-nicotinamide]	0.048
O=C(Nc1cccc(Cl)c1)c1ccc(N2CCNCC2)nc1 [Example 84, N-(3-Chloro-phenyl)-6-piperazin-1-yl-nicotinamide]	0.076
COc1cccc(NC(=O)c2ccc(F)c([N+](=O)[O-])c2)c1 [Example 85, 4-Fluoro-N-(3-methoxy-phenyl)-3-nitro-benzamide]	0.09
CCCNc1ccc(C(=O)Nc2cccc(OC)c2)cc1[N+](=O)[O-] [Example 87, N-(3-Methoxy-phenyl)-3-nitro-4-propylamino-benzamide]	0.004
COc1cccc(NC(=O)c2ccc(NCc3ccccc3)c([N+](=O)[O-])c2)c1 [Example 88, 4-Benzylamino-N-(3-methoxy-phenyl)-3-nitro-benzamide]	0.005
CCNc1ccc(C(=O)Nc2cccc(OC)c2)cc1[N+](=O)[O-] [Example 90, 4-Ethylamino-N-(3-methoxy-phenyl)-3-nitro-benzamide]	0.024
COc1cccc(NC(=O)c2ccc(NC(C)C)c([N+](=O)[O-])c2)c1 [Example 91, 4-Isopropylamino-N-(3-methoxy-phenyl)-3-nitro-benzamide]	0.012
COc1cccc(NC(=O)c2ccc(N3CCC3)c([N+](=O)[O-])c2)c1 [Example 92, 4-Azetidin-1-yl-N-(3-methoxy-phenyl)-3-nitro-benzamide]	0.029
COc1cccc(NC(=O)c2ccc(N3CCCC3)c([N+](=O)[O-])c2)c1 [Example 93, N-(3-Methoxy-phenyl)-3-nitro-4-pyrrolidin-1-yl-benzamide]	0.013

Compound	Ki [µM]
COc1cccc(NC(=O)c2ccc(N3CCCCC3)c([N+](=O)[O-])c2)c1 [Example 94, N-(3-Methoxy-phenyl)-3-nitro-4-piperidin-1-yl-benzamide]	0.012
COc1cccc(NC(=O)c2ccc(Nc3ccccc3)c([N+](=O)[O-])c2)c1 [Example 97, N-(3-Methoxy-phenyl)-3-nitro-4-phenylamino-benzamide]	0.029
CN1CCN(c2ccc(C(=O)Nc3cccc(Cl)c3)cn2)CC1 [Example 135, N-(3-Chloro-phenyl)-6-(4-methyl-piperazin-1-yl)-nicotinamide]	0.009
COc1cccc(NC(=O)c2ccc(N3CCCC3)c(C(F)(F)F)c2)c1 [Example 137, N-(3-Methoxy-phenyl)-4-pyrrolidin-1-yl-3-trifluoromethyl-benzamide]	0.002
COCCNc1ccc(C(=O)Nc2cccc(OC)c2)cc1C(F)(F)F [Example 139, 4-(2-Methoxy-ethylamino)-N-(3-methoxy-phenyl)-3-trifluoromethyl-benzamide]	0.077
COc1cccc(NC(=O)c2ccc(N3CCC3)c(C(F)(F)F)c2)c1 [Example 140, 4-Azetidin-1-yl-N-(3-methoxy-phenyl)-3-trifluoromethyl-benzamide]	0.016
COc1cccc(NC(=O)c2ccc(N3CCCCC3)c(C(F)(F)F)c2)c1 [Example 141, N-(3-Methoxy-phenyl)-4-piperidin-1-yl-3-trifluoromethyl-benzamide]	0.038
COc1cccc(NC(=O)c2ccc(N3CCC(C)CC3)c(C(F)(F)F)c2)c1 [Example 143, N-(3-Methoxy-phenyl)-4-(4-methyl-piperidin-1-yl)-3-trifluoromethyl-benzamide]	0.007
CCCNc1ccc(C(=O)Nc2cccc(OC)c2)cc1C(F)(F)F [Example 144, N-(3-Methoxy-phenyl)-4-propylamino-3-trifluoromethyl-benzamide]	0.032
COc1cccc(NC(=O)c2ccc(NCc3ccccc3)c(C(F)(F)F)c2)c1 [Example 147, 4-Benzylamino-N-(3-methoxy-phenyl)-3-trifluoromethyl-benzamide]	0.005
CCNc1ccc(C(=O)Nc2cccc(OC)c2)cc1C(F)(F)F [Example 148, 4-Ethylamino-N-(3-methoxy-phenyl)-3-trifluoromethyl-benzamide]	0.022
COc1cccc(NC(=O)c2ccc(NC(C)C)c(C(F)(F)F)c2)c1 [Example 149, 4-Isopropylamino-N-(3-methoxy-phenyl)-3-trifluoromethyl-benzamide]	0.022
CNc1ncc(C(=O)Nc2cccc(Cl)c2)cc1Cl [Example 151, 5-Chloro-N-(3-chloro-phenyl)-6-methylamino-nicotinamide]	0.096
CC(C)Nc1ncc(C(=O)Nc2cccc(Cl)c2)cc1Cl [Example 152, 5-Chloro-N-(3-chloro-phenyl)-6-isopropylamino-nicotinamide]	0.027
COCCNc1ncc(C(=O)Nc2cccc(Cl)c2)cc1Cl [Example 153, 5-Chloro-N-(3-chloro-phenyl)-6-(2-methoxy-ethylamino)-nicotinamide]	0.035
O=C(Nc1cccc(Cl)c1)c1cnc(N2CCCC2)c(Cl)c1 [Example 154, 5-Chloro-N-(3-chloro-phenyl)-6-pyrrolidin-1-yl-nicotinamide]	0.014
CCNc1ncc(C(=O)Nc2cccc(Cl)c2)cc1Cl [Example 156, 5-Chloro-N-(3-chloro-phenyl)-6-ethylamino-nicotinamide]	0.039
